Source: US5206223A, “Method for inhibiting heparanase activity” (Yeda Research and Development Co. Ltd., priority 1986, dated 1993)

Key:
heparanase = assay: Inhibition of T lymphocyte heparanase activity (degradation of 35S-labeled heparan sulfate of extracellular matrix); format: biochemical; settings: medium of activated T lymphocytes, 35S-labeled extracellular matrix, various concentrations
Procedure: Heparanase activity was induced into the extracellular medium bathing activated T lymphocytes and tested by incubating the medium with extracellular matrix whose heparan sulfate was labeled with ^35 S as described (Naparstek, Y., Cohen, I. R., Fuks, Z. and I. Vlodavsky. Activated T lymphocytes produce a matrix-degrading heparan sulphate endoglycosidase. Nature 310:241 (1984)). Inhibition of heparanase activity was tested by adding various concentrations of heparin or modified heparins to the reaction mixture and measuring the effect on degradation of the labeled heparin-sulfate as described (Naparstek, Y., Cohen, I. R., Fuks, Z. and I. Vlodavsky.
Activated T lymphocytes produce a matrix-degrading heparan sulphate endoglycosidase, Nature 310:241 (1984)). Totally desulfated heparin and N-desulfated, N-acetylated heparin was prepared as described. (Ayotte, L., A. S. Perlin. NMR spectroscopic observations related to the function of sulfate groups in heparin. Calcium binding vs. biological activity. Carbohydrate Res. 145:267 (1986)).

[1] = test system: experimental autoimmune encephalomyelitis (EAE); assay: Experimental autoimmune encephalomyelitis (EAE) produced by anti-BP T lymphocytes; format: in vivo, Lewis rats; settings: for Day of onset of EAE / Duration of EAE / % incidence of EAE / Clinical score of EAE: 0.1 mg/kg daily; for % incidence of EAE: None 100; for Clinical score of EAE: scale 1-4, None 3.0
From the text: EAE is an experimental autoimmune disease with some features reminiscent of multiple sclerosis in humans. The disease is caused by T lymphocytes immunized to the basic protein (BP) of the central nervous system myelin. To test the effect of heparins on the ability of T lymphocytes to cause autoimmune disease, we used T lymphocytes sensitized against BP, either as T cell lines (Cohen, I. R. Experimental autoimmune encephalomyelitis: Pathogenesis and prevention. In: Immunoregulatory Processes in Multiple Sclerosis and Experimental Allergic Encephalomyelitis. A. A. Vandenbark and J. C. M. Raus, eds. Elsevier Biomedical Res. Amsterdam. 7:91-125 (1985)) or as populations of lymph node cells from BP immunized rats.
EAE was produced by inoculating Lewis rats with a T cell line of anti-BP T lymphocytes (10^6 cells) with anti-BP primed lymph node cells (10^7 cells) intravenously (Cohen, I. R. Experimental autoimmune encephalomyelitis: Pathogenesis and prevention. In: Immunoregulatory Processes in Multiple Sclerosis and Experimental Allergic Encephalomyelitis. A. A. Vandenbark and J. C. M. Raus, eds. Elsevier Biomedical Res. Amsterdam. 7:91-125 (1985)) One day before inoculation and daily for 10 days, the rats received either saline or the heparins.

adjuvant arthritis = assay: Adjuvant arthritis induced with M. tuberculosis; format: in vivo, Lewis rats; settings: for Adjuvant arthritis maximum clinical score: scale 0-16
renal allograft = settings: subanticoagulant s.c. doses, 5000 U daily; cited from earlier work
[2] = 0.001 mg s.c. once daily for 5 days from day 9
[3] = 0.005 mg s.c. once daily for 5 days from day 9
[4] = 0.01 mg s.c. once daily for 5 days from day 9
[5] = 0.02 mg s.c. once daily for 5 days from day 9

With heparin the “Inhibition of degradation of heparan sulfate by heparanase” value (heparanase) was “yes”, the “EAE clinical score (FIG. 3)” value ([1]; 0.02 mg daily s.c. (0.1 mg/kg), from 1 day before T lymphocyte inoculation) was “inhibits EAE” and the “Day of onset of EAE” value ([1]; B: T cell line, None 5.0) was 6.5. The “Duration of EAE” value ([1]; B: T cell line, None 5.5) was 3.6 days, the “% incidence of EAE” value ([1]; B: T cell line) was 20% and the “Clinical score of EAE” value ([1]; B: T cell line) was 1.0. For the same substance, the “Day of onset of EAE” value ([1]; D: primed lymph node cells, None 4.0) was 6.3, the “Duration of EAE” value ([1]; D: primed lymph node cells, None 5.3) was 4.0 days and the “% incidence of EAE” value ([1]; D: primed lymph node cells) was 75%. The “Clinical score of EAE” value ([1]; D: primed lymph node cells) was 1.5, the Adjuvant arthritis duration (adjuvant arthritis; [2]) was 20 days and the “Adjuvant arthritis maximum clinical score” value (adjuvant arthritis; [2]) was 6. For the same substance, the Adjuvant arthritis duration (adjuvant arthritis; [3]) was 16 days, the “Adjuvant arthritis maximum clinical score” value (adjuvant arthritis; [3]) was 4 and the Adjuvant arthritis duration (adjuvant arthritis; [4]) was 15 days. The “Adjuvant arthritis maximum clinical score” value (adjuvant arthritis; [4]) was 5, the Adjuvant arthritis duration (adjuvant arthritis; [5]) was 8 days and the “Adjuvant arthritis maximum clinical score” value (adjuvant arthritis; [5]) was 2. The Adjuvant arthritis duration (adjuvant arthritis; 0.04 mg s.c. once daily for 5 days from day 9, dose 0: >20) was over 20 days, the “Adjuvant arthritis maximum clinical score” value (adjuvant arthritis; 0.04 mg s.c. once daily for 5 days from day 9, dose 0: 10) was 10 and the Inhibition of arthritis (adjuvant arthritis; rat, in vivo) was “yes”. The “Arthritis score (day 60)” value (adjuvant arthritis; rat, in vivo, sc) was 0 and the “Early renal allograft function and graft survival” value (renal allograft) was “no effect on early graft function or graft survival”.
